Experimental data: patent publication US20230000843A1, “MEDICINAL COGNITIVE TREATMENTS” (ACTINOGEN MEDICAL LIMITED, priority 2019, published 2023)

Columns and labels:
[1] = tested on: healthy elderly subjects; assay: Cogstate Detection test (simple reaction time, psychomotor function); type: in vivo, human
Experimental: (§1) The test was aimed at assessing if, and to what extent, Xanamem™ 20 mg a day may improve performance in healthy elderly subjects from Baseline (Week 0) to Weeks 2, 4, 6, 8, 10, 12 (End of Treatment) and 16 (Follow-up), as measured by changes in the Cogstate Test Battery. 42 subjects were randomised in which 30 subjects received 20 mg Xanamem™ once a day and 12 subjects received matching placebo once a day.
(§2) For each visit, excluding the Screening visit and safety visits (Week 6 and Week 10), subjects arrived at the study site having fasted for at least 10 hours. The subjects took Xanamem™ at site after all the pre-dose blood samples had been taken. Xanamem™ was taken 30 minutes after the start of a meal. On non-study visit days, the subjects took Xanamem™ at the same time each morning with food (30 minutes after the start of the meal).
(§3) One capsule of Xanamem™, or the matching placebo, was administered orally with approximately 200 mL of warm water once a day and with food in the morning, to the subjects from Baseline (Week 0) to End of Treatment (Week 12) for a total of 12 weeks. […]
For this test, the subject pressed a “YES” response key as soon as they detected an event (a card turning face up presented in the centre of the computer screen). The software measured the response time to detect each event.

[2] = tested on: healthy elderly subjects; assay: Cogstate Identification test (choice reaction time, visual attention); type: in vivo, human
Experimental: as §1, §2, §3
In this test an event (a card turning face up) occurred in the centre of the computer screen and the subject decided “YES” or “NO” as to whether this event met a predefined and unchanging criterion (i.e. is the color of the card red?). The software measured the speed and accuracy of each response.

[3] = tested on: healthy elderly subjects; assay: One Card Learning test (visual recognition learning); type: in vivo, human
Experimental: as §1, §2
(§4) One capsule of Xanamem™, or the matching placebo, was administered orally with approximately 200 mL of warm water once a day and with food in the morning, to the subjects from Baseline (Week 0) to End of Treatment (Week 12) for a total of 12 weeks.
To assess the efficacy of Xanamem™ 20 mg once a day in improving cognitive ability in the subjects, the Cogstate Test Battery of the subjects were checked at Baseline (Week 0), Weeks 2, 4, and 8, Week 12 (End of Treatment) and Week 16 (Follow-up). […]

[4] = tested on: healthy elderly subjects; assay: Cogstate One Back working memory test; type: in vivo, human
Experimental: as §1, §2, §3
The Cogstate One Back memory test is a valid measure of working memory. […] The software measured the speed and accuracy of each response.

[5] = tested on: healthy elderly subjects; assay: Continuous Paired Associate Learning test (CPAL); type: in vivo, human
Experimental: as §1, §2, §4
(§5) To assess the efficacy of Xanamem™ 20 mg once a day in improving cognitive ability in the subjects, the Cogstate Test Battery of the subjects were checked at Baseline (Week 0), Weeks 2, 4, and 8, Week 12 (End of Treatment) and Week 16 (Follow-up).
The Continuous Paired Associate Learning test is a measure of visual associate memory and uses a well-validated paired associate learning paradigm in which the subject must learn the locations of a number of amoeba-like shapes on the computer screen.
Beneath all but two of the blue spheres were amoeboid shapes, one of which matched the central display; the two remaining circles were distractors. In the exposure phase of the test all of the to-be-remembered pattern-location associations were presented on the computer screen simultaneously.
After a five second delay, a pattern was shown in the central location and this signals that the subject should touch the location in the periphery that contained the same pattern. This process continued until the participant had acknowledged all of the pattern-location associations. The learning phase began with the same test display presented during the exposure phase except that now all of the peripheral locations were shown as blue spheres. One of the patterns presented in the exposure phase was presented in the centre location. With the presentation of this pattern, the subject was required to select the peripheral location where an identical pattern was hidden beneath the blue sphere. […]
(§6) Finding the correct location for all patterns in the set was defined as a learning trial. […] The software recorded each move as an error or as a correct move.

[6] = tested on: healthy elderly subjects; assay: Continuous Paired Associate Learning-Delayed test; type: in vivo, human; details: 20 mg once a day orally, 12 weeks, compared to placebo group
Experimental: as §1, §2, §3, §6

[7] = tested on: healthy elderly subjects; assay: Cogstate Test Battery overall: impairment of cognition; type: in vivo, human; details: 20 mg compared to placebo over 12 weeks
Experimental: as §1, §5
The Cogstate Test Battery included the following tests: detection test, identification test, one card learning test, one back working memory test, and the continuous paired associate learning test (CPAL; paired associate learning).

[8] = Plasma concentrations and pharmacokinetics; type: in vivo, human
Experimental: as §1, §2, §4
The mean Xanamem™ plasma concentration at 3-5 hours after the first dose of the study was 169 ng/mL. […] The mean trough concentration at Weeks 2, 4, and 8, was 89, 73, and 78 ng/mL, and the mean 3 to 5 hour concentration was 353. 331, and 330 ng/mL for weeks 2, 4, and 8, respectively.
Only body weight was identified as a covariate impacting PK in this model, confirming that the PK of Xanamem™ are consistent between healthy volunteers, patients with Alzheimer's Disease, and healthy elderly subjects.

[9] = CSF and corresponding plasma concentrations at the EOT visit; type: in vivo; details: human, oral, 20 mg, four CSF samples at the EOT visit, read-out: ratio of CSF to plasma concentrations
Experimental: The ratio of Xanamem™ CSF to plasma concentrations in the four CSF samples taken at the EOT visit ranged from 0.028 to 0.421; the range of CSF concentrations was 3.48 to 6.25 ng/mL, compared to 11.6 to 126 ng/mL for the corresponding plasma concentrations.

[10] = 20 mg once a day orally, 12 weeks, compared to placebo group
[11] = 12 weeks treatment, 20 mg versus placebo, statistically significant

## O=C(c1csc(-c2cn[nH]c2)c1)N1[C@@H]2CC[C@H]1C[C@](O)(c1ncccn1)C2 [Xanamem™, (5-(1H-Pyrazol-4-yl)thiophen-3-yl)(3-hydroxy-3-(pyrimidin-2-yl)-8-azabicyclo[3.2.1]octan-8-yl)methanone]
[1]; [10]
  psychomotor function (speed of performance, log10 transformed reaction times for correct responses): improved psychomotor function
[1]; 20 mg versus placebo, by time point
  effect on Detection test (psychomotor speed): evident at week 8
[2]; [10]
  visual attention (speed of performance, log10 transformed reaction times for correct responses): improved visual attention
[2]; [11]
  effect size, speed of performance on Identification test (attention): > 0.6
[3]; 20 mg once a day orally, week 8, compared to placebo group
  visual learning (accuracy of performance, arcsine transformation of proportion of correct responses): improved visual learning
[3]; 20 mg versus placebo, overall
  effect size (ES) data for One Card Learning outcomes: tended to favour Xanamem™ 20 mg
[4]; [10]
  working memory (speed of performance, log10 transformed reaction times for correct responses): improved working memory
[4]; [11]
  effect size, speed of performance on One-back test (working memory): > 0.6
[5]; [10]
  Hippocampal dependent learning and memory (number of errors remembering the associations): improved Hippocampal dependent learning and memory
[5]; 20 mg versus placebo
  differences on Continuous Paired Associates Learning Test outcomes: statistically significant differences in data were in favour of Xanamem™ 20 mg
[5]; 20 mg versus placebo, Week 4
  effect size difference on Continuous Paired Associates Learning Test, sensitivity analysis: favoured Xanamem™ 20 mg
[5]; 20 mg versus placebo, overall
  effect size (ES) data for Continuous Paired Associates outcomes: tended to favour Xanamem™ 20 mg
[6]
  Hippocampal dependent learning and memory (number of errors remembering the associations after a delay): improved Hippocampal dependent learning and memory
[7]
  impairment of cognition associated with treatment: no systemic evidence of impairment in any respect of cognition
[8]; Week 2, 20 mg once a day
  mean 3 to 5 hour plasma concentration: 353 ng/mL
  mean trough plasma concentration: 89 ng/mL
[8]; Week 4, 20 mg once a day
  mean 3 to 5 hour plasma concentration: 331 ng/mL
  mean trough plasma concentration: 73 ng/mL
[8]; Week 8, 20 mg once a day
  mean 3 to 5 hour plasma concentration: 330 ng/mL
  mean trough plasma concentration: 78 ng/mL
[8]; after the first dose, 20 mg oral with food
  mean plasma concentration at 3-5 hours: 169 ng/mL
[8]; only body weight identified as covariate
  pharmacokinetic model: one-compartment model with first-order absorption and elimination
[8]; trough and 3-5 hour concentrations consistent across Weeks 2, 4 and 8
  steady state of plasma concentrations: steady state had been achieved by Week 2
[9]
  Kp: 0.028 to 0.421
